Laboratory results: PubChem BioAssay AID248 (DTP/NCI, 2004)
Values joined by “and” are separate entries in the source; they are usually repeats but may differ in a detail not shown here. Equal entries are not always repeated. Toxic doses and inconclusive results are not listed. No stated cut-off is given here; in the data, active means T/C of 150% or more; inactive means T/C below 125%.

Test system: L1210 leukemia ip in BDF1 mice, survival T/C
Experiment: NCI In Vivo Anticancer Drug Screen. Data for tumor model L1210 Leukemia (intraperitoneal) in B6D2F1 (BDF1) mice
Conditions: endpoint: mean survival time, higher = longer survival
Procedure, shortened: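 Value reflects the ratio of survival in compound-treated mice to survival in vehicle-treated controls, with both groups carrying the same transplanted tumor.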

[1] = dose: 100.0 mg/kg/injection, schedule: Q04DX003 (ip), vehicle: Klucel (hydroxypropylcellulose) (HPC)
[2] = dose: 200.0 mg/kg/injection, schedule: Q04DX003 (ip), vehicle: Klucel (hydroxypropylcellulose) (HPC)
[3] = dose: 400.0 mg/kg/injection, schedule: Q04DX003 (ip), vehicle: Klucel (hydroxypropylcellulose) (HPC)
[4] = dose: 50.0 mg/kg/injection, schedule: Q04DX003 (ip), vehicle: saline
[5] = dose: 50.0 mg/kg/injection, schedule: Q01DX009 (ip), vehicle: saline with Tween-80
[6] = dose: 100.0 mg/kg/injection, schedule: Q01DX009 (ip), vehicle: saline with Tween-80
[7] = dose: 200.0 mg/kg/injection, schedule: Q01DX009 (ip), vehicle: saline with Tween-80
[8] = dose: 75.0 mg/kg/injection, schedule: Q01DX001 (ip), vehicle: saline
[9] = dose: 100.0 mg/kg/injection, schedule: Q04DX003 (ip), vehicle: saline
[10] = dose: 200.0 mg/kg/injection, schedule: Q04DX003 (ip), vehicle: saline
[11] = dose: 400.0 mg/kg/injection, schedule: Q01DX009 (ip), vehicle: saline with Tween-80

Measured: T/C

Cc1c(Cl)cccc1NC(=O)c1ccc(Cl)c(Cl)c1
inactive: dose: 100.0 mg/kg/injection, schedule: Q01DX009 (ip), vehicle: gum acacia 88 % of control | [1] 103 % of control | dose: 200.0 mg/kg/injection, schedule: Q01DX009 (ip), vehicle: gum acacia 88 % of control | [2] 90 % of control | dose: 400.0 mg/kg/injection, schedule: Q01DX009 (ip), vehicle: gum acacia 91 % of control | [3] 95 % of control

c1ccc([P+](c2ccccc2)(c2ccccc2)c2ccc([P+](c3ccccc3)(c3ccccc3)c3ccccc3)c3ccccc23)cc1
inactive: dose: 0.6 mg/kg/injection, schedule: Q04DX003 (ip), vehicle: Klucel (hydroxypropylcellulose) (HPC) 92 % of control | dose: 1.0 mg/kg/injection, schedule: Q04DX003 (ip), vehicle: Klucel (hydroxypropylcellulose) (HPC) 92 % of control | dose: 1.5 mg/kg/injection, schedule: Q04DX003 (ip), vehicle: Klucel (hydroxypropylcellulose) (HPC) 92 % of control | dose: 2.25 mg/kg/injection, schedule: Q04DX003 (ip), vehicle: Klucel (hydroxypropylcellulose) (HPC) 92 % of control | dose: 3.12 mg/kg/injection, schedule: Q04DX003 (ip), vehicle: Klucel (hydroxypropylcellulose) (HPC) 96 % of control | dose: 6.25 mg/kg/injection, schedule: Q04DX003 (ip), vehicle: Klucel (hydroxypropylcellulose) (HPC) 94 % of control

O=C(Nc1ccc(CCO)cc1)Nc1ccccc1F
inactive: dose: 100.0 mg/kg/injection, schedule: Q01DX009 (ip), vehicle: Klucel (hydroxypropylcellulose) (HPC) 97 % of control | dose: 200.0 mg/kg/injection, schedule: Q01DX009 (ip), vehicle: Klucel (hydroxypropylcellulose) (HPC) 88 % of control | dose: 400.0 mg/kg/injection, schedule: Q01DX009 (ip), vehicle: Klucel (hydroxypropylcellulose) (HPC) 111 % of control

CCCC(Cc1ccccc1)N1CCCC1 (centres undefined)
inactive: dose: 3.12 mg/kg/injection, schedule: Q01DX009 (ip), vehicle: saline 103 % of control | dose: 6.25 mg/kg/injection, schedule: Q01DX009 (ip), vehicle: saline 103 % of control | dose: 12.5 mg/kg/injection, schedule: Q01DX009 (ip), vehicle: saline 97 % of control | dose: 25.0 mg/kg/injection, schedule: Q01DX009 (ip), vehicle: saline 103 % of control | dose: 25.0 mg/kg/injection, schedule: Q04DX003 (ip), vehicle: saline 92 % of control | [4] 95 % of control

OC1/C(=C/c2ccccc2)c2cccc3cccc1c23 (centres undefined)
inactive: [5] 90 % of control | [6] 93 % of control | [7] 93 % of control

COC(=O)c1cc(C2OCC3OC(C)(C)OC32)[nH]n1 (centres undefined)
inactive: dose: 100.0 mg/kg/injection, schedule: Q01DX005 (ip), vehicle: saline 96 % of control | dose: 200.0 mg/kg/injection, schedule: Q01DX005 (ip), vehicle: saline 100 % of control

Cc1ccc[n+](CC(=O)c2ccccc2)c1
inactive: dose: 0.19 mg/kg/injection, schedule: Q04DX003 (ip), vehicle: saline 102 % of control | dose: 0.39 mg/kg/injection, schedule: Q01DX009 (ip), vehicle: saline 98 % of control | dose: 0.39 mg/kg/injection, schedule: Q04DX003 (ip), vehicle: saline 98 % of control | dose: 0.78 mg/kg/injection, schedule: Q01DX009 (ip), vehicle: saline 106 % of control | dose: 0.78 mg/kg/injection, schedule: Q04DX003 (ip), vehicle: saline 96 % of control | dose: 1.56 mg/kg/injection, schedule: Q04DX003 (ip), vehicle: saline 98 % of control | [8] 97 % of control | dose: 150.0 mg/kg/injection, schedule: Q01DX001 (ip), vehicle: saline 90 % of control | dose: 300.0 mg/kg/injection, schedule: Q01DX001 (ip), vehicle: saline 88 % of control

O=C1c2ccccc2C(=O)N1c1cc(OCc2ccccc2)cc(OCc2ccccc2)c1
inactive: dose: 100.0 mg/kg/injection, schedule: Q01DX009 (ip), vehicle: water 94 % of control | dose: 100.0 mg/kg/injection, schedule: Q04DX003 (ip), vehicle: water 104 % of control | dose: 200.0 mg/kg/injection, schedule: Q01DX009 (ip), vehicle: water 91 % of control | dose: 200.0 mg/kg/injection, schedule: Q04DX003 (ip), vehicle: water 102 % of control | dose: 400.0 mg/kg/injection, schedule: Q01DX009 (ip), vehicle: water 91 % of control | dose: 400.0 mg/kg/injection, schedule: Q04DX003 (ip), vehicle: water 102 % of control

CC(C)=NNCCO
inactive: dose: 12.5 mg/kg/injection, schedule: Q01DX001 (ip), vehicle: saline 103 % of control | dose: 25.0 mg/kg/injection, schedule: Q01DX001 (ip), vehicle: saline 103 % of control | dose: 50.0 mg/kg/injection, schedule: Q01DX001 (ip), vehicle: saline 100 % of control

COc1ccc(CSC(=S)Nc2ccc(Cl)c(Cl)c2)cc1
inactive: [4] 101 % of control | [9] 108 % of control | [10] 93 % of control

C(=C\c1ccccc1)/C[n+]1cccc2ccccc21
inactive: [8] 89 % of control

NC1CCCCC1Cl (centres undefined)
inactive: dose: 100.0 mg/kg/injection, schedule: Q01DX001 (ip), vehicle: saline 98 % of control | dose: 200.0 mg/kg/injection, schedule: Q01DX001 (ip), vehicle: saline 96 % of control | dose: 400.0 mg/kg/injection, schedule: Q01DX001 (ip), vehicle: saline 98 % of control

CCCCCCC(O)CCCCCCCCCCC(=O)OC (centres undefined)
inactive: [6] 98 % of control | [7] 88 % of control | [11] 92 % of control

NNC(=O)CCCCCO
inactive: [6] 102 % of control | [7] 100 % of control | [11] 100 % of control

Cc1c(C)c([N+](=O)[O-])c(/C=C/C(=O)O)c(C)c1[N+](=O)[O-]
inactive: [1] 97 % of control | [2] 86 % of control

O=C(O)CCSCc1cc(=O)[nH]c(=O)[nH]1
inactive: [9] 96 % of control | [10] 98 % of control | dose: 400.0 mg/kg/injection, schedule: Q04DX003 (ip), vehicle: saline 96 % of control

CCCCC/C(=N\OC(=O)NC)C(F)(F)F
inactive: dose: 5.0 mg/kg/injection, schedule: Q01DX001 (ip), vehicle: saline 96 % of control | dose: 10.0 mg/kg/injection, schedule: Q01DX001 (ip), vehicle: saline 104 % of control | dose: 20.0 mg/kg/injection, schedule: Q01DX001 (ip), vehicle: saline 100 % of control | dose: 40.0 mg/kg/injection, schedule: Q01DX001 (ip), vehicle: saline 98 % of control | dose: 80.0 mg/kg/injection, schedule: Q01DX001 (ip), vehicle: saline 94 % of control

O=Nc1[nH]c(O)c2ccccc12
inactive: [1] 97 % of control and 91 % of control | [2] 99 % of control and 103 % of control | [3] 103 % of control and 89 % of control

O=CC(Cl)Cl
inactive: dose: 100.0 mg/kg/injection, schedule: Q01DX009 (ip), vehicle: saline 92 % of control | dose: 200.0 mg/kg/injection, schedule: Q01DX009 (ip), vehicle: saline 110 % of control | dose: 400.0 mg/kg/injection, schedule: Q01DX009 (ip), vehicle: saline 108 % of control

CC(C)(C)c1ccc2c(c1)CCCC2
inactive: [5] 93 % of control | [6] 89 % of control | [7] 96 % of control

Cc1[nH]c2ccccc2c(=O)c1CCC(=O)O
inactive: dose: 100.0 mg/kg/injection, schedule: Q04DX002 (ip), vehicle: saline with Tween-80 88 % of control | dose: 200.0 mg/kg/injection, schedule: Q04DX002 (ip), vehicle: saline with Tween-80 91 % of control | dose: 400.0 mg/kg/injection, schedule: Q04DX002 (ip), vehicle: saline with Tween-80 91 % of control

Cc1cccc(C)c1N(COCC(C)C)C(=O)CCl
inactive: [6] 100 % of control | [7] 100 % of control

NC(=O)c1ccc[n+](CC(=O)NCc2ccccc2)c1
inactive: [9] 96 % of control | [10] 93 % of control

O=S(=O)(O)CC(NCc1ccccc1)c1ccccc1 (centres undefined)
inactive: dose: 100.0 mg/kg/injection, schedule: Q04DX003 (ip), vehicle: other 100 % of control | dose: 200.0 mg/kg/injection, schedule: Q04DX003 (ip), vehicle: other 97 % of control | dose: 400.0 mg/kg/injection, schedule: Q04DX003 (ip), vehicle: other 94 % of control

CCOC(=O)C(C)C(c1ccccc1)c1ccccc1 (centres undefined)
inactive: dose: 100.0 mg/kg/injection, schedule: Q04DX003 (ip), vehicle: saline with Tween-80 92 % of control | dose: 200.0 mg/kg/injection, schedule: Q04DX003 (ip), vehicle: saline with Tween-80 93 % of control | dose: 400.0 mg/kg/injection, schedule: Q04DX003 (ip), vehicle: saline with Tween-80 96 % of control
